According to ChEMBL document CHEMBL1129443, “Inactivation of S-adenosyl-L-homocysteine hydrolase by amide and ester derivatives of adenosine-5'-carboxylic acid” (J Med Chem, 1996):

Legend:
Adenosylhomocysteinase [1] = target: T1, Adenosylhomocysteinase (Homo sapiens, UniProt P23526); experiment: Inhibition of S-adenosyl-L-homocysteine hydrolase, inactivation rate constant.
Target sequence in this assay (P23526 whole entry): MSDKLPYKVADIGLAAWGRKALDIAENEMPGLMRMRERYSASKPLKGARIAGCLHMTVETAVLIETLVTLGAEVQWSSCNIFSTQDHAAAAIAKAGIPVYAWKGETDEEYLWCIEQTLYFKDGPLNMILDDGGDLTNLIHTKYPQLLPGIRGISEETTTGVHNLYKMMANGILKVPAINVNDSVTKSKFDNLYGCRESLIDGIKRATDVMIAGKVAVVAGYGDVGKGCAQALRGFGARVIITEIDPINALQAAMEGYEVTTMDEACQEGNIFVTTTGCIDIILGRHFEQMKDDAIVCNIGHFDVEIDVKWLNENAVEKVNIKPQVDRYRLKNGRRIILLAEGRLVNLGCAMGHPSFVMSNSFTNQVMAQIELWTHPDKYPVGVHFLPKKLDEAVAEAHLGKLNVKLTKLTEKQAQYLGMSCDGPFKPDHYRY

Adenosylhomocysteinase [2] = target: T1, Adenosylhomocysteinase
Target sequence in this assay (P23526 2-432 limits assumed): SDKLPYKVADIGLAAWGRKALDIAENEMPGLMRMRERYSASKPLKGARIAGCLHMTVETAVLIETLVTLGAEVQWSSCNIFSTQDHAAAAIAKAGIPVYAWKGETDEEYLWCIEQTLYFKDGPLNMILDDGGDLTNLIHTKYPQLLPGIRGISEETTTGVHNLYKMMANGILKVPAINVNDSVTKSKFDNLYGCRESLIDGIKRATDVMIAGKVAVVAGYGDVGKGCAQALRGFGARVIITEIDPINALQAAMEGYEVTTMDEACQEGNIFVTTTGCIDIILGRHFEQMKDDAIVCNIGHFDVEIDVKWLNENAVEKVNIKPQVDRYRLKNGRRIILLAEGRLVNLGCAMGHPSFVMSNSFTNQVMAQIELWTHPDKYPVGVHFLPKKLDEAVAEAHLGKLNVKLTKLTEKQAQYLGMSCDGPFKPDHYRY
Description: Inhibition of S-adenosyl-L-homocysteine hydrolase, dissociation constant.

Row | SMILES | Ki (Adenosylhomocysteinase [1]) | K2 (Adenosylhomocysteinase [2])
1 | Nc1ncnc2c1ncn2C1O[C@H](C(=O)OCc2ccccc2)[C@@H](O)[C@H]1O (stereo partly drawn) | 360 nM | 0.017 min⁻¹
2 | CCCCOC(=O)[C@H]1OC(n2cnc3c(N)ncnc32)[C@H](O)[C@@H]1O (stereo partly drawn) | 710 nM | 0.11 min⁻¹
3 | CC(C)COC(=O)[C@H]1OC(n2cnc3c(N)ncnc32)[C@H](O)[C@@H]1O (stereo partly drawn) | 570 nM | 0.077 min⁻¹
4 | CC(C)OC(=O)[C@H]1OC(n2cnc3c(N)ncnc32)[C@H](O)[C@@H]1O (stereo partly drawn) | 770 nM | 0.064 min⁻¹
5 | Nc1ncnc2c1ncn2C1O[C@H](C(=O)Nc2ccccc2)[C@@H](O)[C@H]1O (stereo partly drawn) | 48500 nM | 0.028 min⁻¹
6 | CCN(CC)C(=O)[C@H]1OC(n2cnc3c(N)ncnc32)[C@H](O)[C@@H]1O (stereo partly drawn) | 570 nM | 0.05 min⁻¹
7 | Nc1ncnc2c1ncn2C1O[C@H](C(=O)NCc2ccccc2)[C@@H](O)[C@H]1O (stereo partly drawn) | 43400 nM | 0.03 min⁻¹
8 | Nc1ncnc2c1ncn2[C@@H]1O[C@H](C=O)[C@@H](O)[C@H]1O | 39 nM | 0.65 min⁻¹
9 | Nc1ncnc2c1ncn2C1O[C@H](C(=O)OCCCl)[C@@H](O)[C@H]1O (stereo partly drawn) | 320 nM | 0.35 min⁻¹
10 | NC(=O)[C@H]1OC(n2cnc3c(N)ncnc32)[C@H](O)[C@@H]1O (stereo partly drawn) | 2600 nM | 0.1 min⁻¹
11 | CCCCNC(=O)[C@H]1OC(n2cnc3c(N)ncnc32)[C@H](O)[C@@H]1O (stereo partly drawn) | 19800 nM | 0.03 min⁻¹
12 | CNC(=O)[C@H]1O[C@@H](n2cnc3c(N)ncnc32)[C@H](O)[C@@H]1O | 1930 nM | 0.095 min⁻¹
13 | Nc1ncnc2c1ncn2[C@@H]1O[C@H](C(=O)O)[C@@H](O)[C@H]1O [5'-CARBOXY ADENOSINE] | 410 nM | 0.045 min⁻¹
14 | COC(=O)[C@H]1O[C@@H](n2cnc3c(N)ncnc32)[C@H](O)[C@@H]1O | 1700 nM | 0.78 min⁻¹
